According to patent US20240139220A1, “TREATMENT OF HPV INFECTION” (priority 2022, published 2024):

How the values were obtained:
[1] = Ex vivo permeation and penetration across porcine vaginal tissue (Franz diffusion cells, IVPT); assay type: in vitro ADME
Excerpt: FIG. 116 is an in vitro tissue permeation test in vaginal tissue comparing Compound II to ABI-1968. […] Bars B and C show the tissue penetration of a 0.1% Compound II gel in […]. […] This may be a contributing factor to the performance of ABI-1968 in clinical studies. […] This is described in Example 41.
Freshly harvested porcine vaginal tissue was procured from local slaughterhouse in an ice box. The vaginal tissue was cut open to expose the mucosal surface and tissue was cleaned by gentle flow of PBS pH 7.4. The porcine vaginal tissue was cut into circular portions (approximately 2 cm^2) with help of a […] punch.
The circular portion of tissue was sandwiched between two chambers of a Franz diffusion cell with an active diffusion area of 1 cm^2, and the mucosal layer was exposed to the donor chambers. The resistance across porcine vaginal tissue was measured using a wave form generator to ensure the integrity of the tissue segment used for the permeation study. Porcine vaginal tissue with resistance of ≥3 KΩ.cm^2 was used for study. The receiver chamber was filled with 8 ml of 5% solutol PBS 7.4 pH, which was stirred at 600 rpm with a 3 mm magnetic stir bar and the temperature was maintained at 37° C. with a circulating water bath.
The ˜200 mg of gel was filled into tared 1 mL syringe and gel was dispensed to donor chamber. The gel was spread on to mucosal surface with pre weighed applicator. After loading and spreading of the gel onto surface of mucosal surface, the weight of 1 mL syringe and applicator was noted to determine the exact amount of gel loaded into donor chamber.
Time course (2 h, 4 h and 8 h) porcine vaginal permeation studies were performed. After loading gel, 500 μL samples were withdrawn from the receiver compartment at different time intervals and each time an equal volume of fresh receiver media was used to replace withdrawn samples. The sample withdrawn at each time interval were stored immediately in −20° C. until analysis. After 2, 4 and 8 h, the formulation was removed from the donor chamber with help of syringe and cleaned with cotton swab. The tissue was removed and washed gently with wash solution (50% methanol in water) 5 times and alternatively cleaning with cotton swab.
An 8 mm punch of active diffusion area of washed porcine vaginal tissue was removed, weighed and transferred into a tube. This tube was immediately placed into dry ice for ˜15 min. After specified time, tissue was removed and placed in precooled dish. The tissue was minced into smaller pieces on a dish with a precooled surgical blade. The minced tissue was transferred to sample tubes and dish was rinsed with 1 ml of 5% solutol in PBS 7.4 pH and transferred to same tissue sample tube. These tubes were stored in −70° C. until analysis.
The samples stored at −20° C. was removed and thawed at room temperature for 30 min. The drug from receptor fluid was centrifuged at 13000 rpm for 5 min and to 200 μL of supernatant equal volume of extraction solvent was added. These samples were centrifuged at 13000 rpm for 5 min and supernatant was transferred into vials for analysis.
The minced tissue samples stored at −70° C. were removed and thawed at room temperature for ˜90 min. The samples were kept for shaking at room temperature for 4 h in BioShaker. After 4 h, samples were centrifuged at 13000 rpm for 5 min. To 100 μL of supernatant, 400 μL of extraction solvent was added and vortexed for 2 min. […]

[2] = Bulk stability, accelerated storage for one week (HPLC, XRPD); assay type: physicochemical; details: for Bulk (XRPD) / Color / Purity, Bulk (HPLC): 1 week
Experimental: Bulk stability: Accelerated stability experiments were conducted at 25° C./92% RH and 40° C./75% RH in an open container, 60° C. in a tight container for one week.
Samples were characterized by XRPD and HPLC and inspected for color change.
Accelerated stability experiments were conducted at 25° C./92% RH in an open container, at 40° C./75% RH in an open container, and at 60° C. in a tight container for one week.

[3] = Solubility in buffers, water and simulated vaginal fluid at 37° C.; assay type: physicochemical
Experimental: About 4 mg of Compound I Pattern 1 was added into 2 mL of buffer solution.
(§1) Solubility was tested in five media, pH 3.0 citrate buffer, pH 4.5 acetate buffer, pH 6.8 phosphate buffer, water, simulated vaginal fluid (pH 4.2) at 37° C. for 0.5 h and 2 h.
The salt amount used is equivalent to 10 mg anhydrous free base. […] The obtained clear solutions were analyzed by pH meter for pH, and solubility was determined by observation.
as §1

[4] = Hygroscicity by Dynamic Vapor Sorption (DVS) at 25° C.; assay type: physicochemical; details: for XRPD after DVS test: 25° C.
Experimental: Hygroscopicity was investigated by DVS at 25° C., using the following method: […]

[5] = Polymorph screening by equilibration in solvents at 25° C. (XRPD); assay type: physicochemical
[6] = BS1: solid state, 25° C./92% RH, open container
[7] = BS2: solid state, 40° C./75% RH, open container
[8] = BS3: solid state, 60° C., tight container
[9] = ES1: pH 3.0, 100 mM citrate buffer
[10] = ES2: pH 4.5, 50 mM acetate buffer
[11] = ES3: pH 6.8, 50 mM phosphate buffer
[12] = ES5: Simulated vaginal fluid (pH adjusted by 0.1N NaOH)

CCOC(=O)[C@H](C)NP(=O)(COCCn1cnc2c(OC)nc(N)nc21)OCc1ccccc1.O=C(O)/C=C/C(=O)O (mixture of isomers) [Compound I monofumarate, (±)-(2S)-ethyl-2-((((2-(2-amino-6-methoxy-9H-purin-9-yl)-ethoxy)-methyl)-(benzyloxy)-phosphoryl)-amino)-propionate monofumarate]
Concentration in vaginal tissue ([1]; 0.1% dose, porcine and human tissues (FIG. 116)): 40 to 85 ng/mL

CCCCCCCCCCCCCCCCCCOCCOP(=O)(O)COCCn1cnc2c(=O)[nH]c(N)nc21 [ABI-1968]
Concentration in vaginal tissue ([1]; 3% dose (FIG. 116)): < 15 ng/mL
Tissue penetration ([1]; porcine vaginal tissue, FIG. 116, Compound II 0.1% gel, ABI-1968 1% and 3% formulations): substantially smaller degree
Tissue concentration ([1]; up to a 3% dose (Bar F and G in FIG. 116)): < 15 ng/mg

CCOC(=O)C(C)NP(=O)(COCCn1cnc2c(OC)nc(N)nc21)OCc1ccccc1.O=C(O)C=CC(=O)O (stereo not shown) [Compound II Pattern 1]
Stability after exposure to the three conditions ([2]; 25° C./92% RH open, 40° C./75% RH open, 60° C. tight container, one week): good physical and chemical stability
Bulk (XRPD) [2, 6]: No form change
Color [2, 6]: No change
Purity, Bulk (HPLC) [2, 6]: 99.5%
Bulk (XRPD) [2, 7]: No form change
Color [2, 7]: No change
Purity, Bulk (HPLC) [2, 7]: 99.4%
Bulk (XRPD) [2, 8]: No form change
Color [2, 8]: No change
Purity, Bulk (HPLC) [2, 8]: 99.7%
Initial HPLC purity ([2]; before storage): 99.7%
Solubility 0.5 hours [3, 9]: >2 mg/mL
Solubility 2 hours [3, 9]: > 2 mg/mL
pH of solution, 2 hours [3, 9]: 2.85
Solubility 0.5 hours [3, 10]: >2 mg/mL
Solubility 2 hours [3, 10]: > 2 mg/mL
pH of solution, 2 hours [3, 10]: 4.2
Solubility 0.5 hours [3, 11]: >2 mg/mL
Solubility 2 hours [3, 11]: > 2 mg/mL
pH of solution, 2 hours [3, 11]: 6.47
Solubility 0.5 hours ([3]; ES4: Water): >2 mg/mL
Solubility 2 hours ([3]; ES4: Water): > 2 mg/mL
pH of solution, 2 hours ([3]; ES4: Water): 2.87
Solubility 0.5 hours [3, 12]: >2 mg/mL
Solubility 2 hours [3, 12]: > 2 mg/mL
pH of solution, 2 hours [3, 12]: 5.79
Desorp. (%) Cycle 1 ([4]; 0% RH, DVS 25° C.): 0.03%
Desorp. (%) Cycle 2 ([4]; 0% RH, DVS 25° C.): 0.03%
Sorp. (%) Cycle 1 ([4]; 0% RH, DVS 25° C.): 0.03%
Sorp. (%) Cycle 2 ([4]; 0% RH, DVS 25° C.): 0.03%
Desorp. (%) Cycle 1 ([4]; 10% RH, DVS 25° C.): 0.05%
Desorp. (%) Cycle 2 ([4]; 10% RH, DVS 25° C.): 0.05%
Sorp. (%) Cycle 1 ([4]; 10% RH, DVS 25° C.): 0.04%
Sorp. (%) Cycle 2 ([4]; 10% RH, DVS 25° C.): 0.04%
Desorp. (%) Cycle 1 ([4]; 20% RH, DVS 25° C.): 0.08%
Desorp. (%) Cycle 2 ([4]; 20% RH, DVS 25° C.): 0.07%
Sorp. (%) Cycle 1 ([4]; 20% RH, DVS 25° C.): 0.06%
Sorp. (%) Cycle 2 ([4]; 20% RH, DVS 25° C.): 0.06%
Desorp. (%) Cycle 1 ([4]; 30% RH, DVS 25° C.): 0.10%
Desorp. (%) Cycle 2 ([4]; 30% RH, DVS 25° C.): 0.08%
Sorp. (%) Cycle 1 ([4]; 30% RH, DVS 25° C.): 0.08%
Sorp. (%) Cycle 2 ([4]; 30% RH, DVS 25° C.): 0.07%
Desorp. (%) Cycle 1 ([4]; 40% RH, DVS 25° C.): 0.17%
Desorp. (%) Cycle 2 ([4]; 40% RH, DVS 25° C.): 0.10%
Sorp. (%) Cycle 1 ([4]; 40% RH, DVS 25° C.): 0.10%
Sorp. (%) Cycle 2 ([4]; 40% RH, DVS 25° C.): 0.09%
XRPD after DVS test ([4]; 40-0-95-0-40% RH): No form change
Desorp. (%) Cycle 2 ([4]; 50% RH, DVS 25° C.): 0.12%
Sorp. (%) Cycle 1 ([4]; 50% RH, DVS 25° C.): 0.12%
Desorp. (%) Cycle 2 ([4]; 60% RH, DVS 25° C.): 0.14%
Sorp. (%) Cycle 1 ([4]; 60% RH, DVS 25° C.): 0.13%
Desorp. (%) Cycle 2 ([4]; 70% RH, DVS 25° C.): 0.18%
Sorp. (%) Cycle 1 ([4]; 70% RH, DVS 25° C.): 0.16%
Desorp. (%) Cycle 2 ([4]; 80% RH, DVS 25° C.): 0.21%
Sorp. (%) Cycle 1 ([4]; 80% RH, DVS 25° C.): 0.19%
Desorp. (%) Cycle 2 ([4]; 90% RH, DVS 25° C.): 0.24%
Sorp. (%) Cycle 1 ([4]; 90% RH, DVS 25° C.): 0.23%
Desorp. (%) Cycle 2 ([4]; 95% RH, DVS 25° C.): 0.24%
Sorp. (%) Cycle 1 ([4]; 95% RH, DVS 25° C.): 0.24%
Hygroscopicity ([4]; DVS 25° C.): slightly hygroscopic
XRPD after DVS test ([4]; cycle 40-0-95-0-40% RH): No form change
Water uptake ([4]; up to 95% RH, DVS 25° C.): about 0.2%
Crystal modification after 1 week equilibration (XRPD) ([5]; PS1: IPA): Compound II Pattern 1
Crystal modification after 1 week equilibration (XRPD) ([5]; PS2: Heptanes): Compound II Pattern 1
Crystal modification after 1 week equilibration (XRPD) ([5]; PS3: Water): Compound II Pattern 1
Crystal modification after 1 week equilibration (XRPD) ([5]; PS4: ACN): Compound II Pattern 2
Crystal modification after 1 week equilibration (XRPD) ([5]; PS5: MEK): Compound II Pattern 3
Crystal modification after 1 week equilibration (XRPD) ([5]; PS6: Acetone): Compound II Pattern 1
Crystal modification after 1 week equilibration (XRPD) ([5]; PS7: IPA/heptanes (3/10, v/v)): Compound II Pattern 1
Crystal modification after 1 week equilibration (XRPD) ([5]; PS8: water/ACN (2.9/97.1, v/v)): Compound II Pattern 2
Crystal modification after 1 week equilibration (XRPD) ([5]; PS9: IPA/MTBE (1/3, v/v)): Compound II Pattern 1
Crystal modification after 1 week equilibration (XRPD) ([5]; PS10: EA/toluene (1/3, v/v)): Compound II Pattern 1
